Data: paper PMC8746709, “Benzothiazolium Derivative-Capped Silica Nanocomposites for β-Amyloid Imaging In Vivo” (Analytical Chemistry, 2021)

Target: T1, β-amyloid(1–42) (Aβ1–42) aggregates (Homo sapiens, UniProt P05067)
T1 construct: gene APP; Aβ1–42, aggregates (filamentous)
Assay: fluorescence saturation binding assay with Aβ[…] aggregates

T1 sequence (P05067 672-713): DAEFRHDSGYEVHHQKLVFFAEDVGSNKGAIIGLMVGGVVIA

| Kd | Compound |
| --- | --- |
| 508 ± 94.8 nM | CN(C)c1ccc(/C=C/c2sc3ccccc3[n+]2C)cc1 [SZI-1, (E)-2-(4-(Dimethylamino)styryl)-3-methylbenzo[d]thiazol-3-ium Iodide] |
| 601 ± 94.8 nM | CN(C)c1ccc(/C=C/C=C/c2sc3ccccc3[n+]2C)cc1 [SZI-2, 2-((1E,3E)-4-(4-(Dimethylamino)phenyl)buta-1,3-dien-1-yl)-3-methylbenzo[d]thiazol-3-ium Iodide] |
